Results as given in patent US9302999B2, “Substituted triazoles as herbicides” (E. I. DU PONT DE NEMOURS AND COMPANY, priority 2012, dated 2016).

Experiments:
Assay type in all cases: in vivo
rice (Oryza sativa) = test: Test C flooded paddy test: rice; details: scale 0 to 100 (0 no effect, 100 complete control)
Summary of the method: (§1)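 Rating: visual, 0–100 (100 = complete control), versus untreated controls after 13 to 15 greenhouse days. Treatment went into paddy water held at 3 cm over the soil, on plants grown to two leaves.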

[1] = test system: velvetleaf (Abutilon theophrasti); test: Test A pre-/postemergence: velvetleaf; details: for Velvetleaf plant response rating: Postemergence; for Plant response rating, Velvetleaf: Preemergence
Summary of the method: (§2)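 Pre: directed soil spray after planting in loam + sand. Post: same formulation (non-phytotoxic solvent + surfactant) on 1–2-leaf plants, 2–10 cm. Greenhouse ~10 d; visual injury 0–100 vs untreated.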

[2] = test system: pigweed (Amaranthus retroflexus); test: Test A pre-/postemergence: pigweed; details: for Pigweed plant response rating: Postemergence; for Plant response rating, Pigweed: Preemergence
Summary of the method: as §2

corn (Zea mays) = test: Test A pre-/postemergence: corn; details: for Corn plant response rating: Postemergence; for Plant response rating, Corn: Preemergence
Summary of the method: as §2

[3] = test system: crabgrass, large (large crabgrass, Digitaria sanguinalis); test: Test A pre-/postemergence: crabgrass, large; details: for Crabgrass, Large plant response rating: Postemergence; for Plant response rating, Crabgrass, Large: Preemergence
Summary of the method: as §2

[4] = test system: ducksalad (Heteranthera limosa); test: Test C flooded paddy test: ducksalad; details: scale 0 to 100 (0 no effect, 100 complete control)
Summary of the method: as §1

[5] = test system: wheat (Triticum aestivum); test: Test A pre-/postemergence: wheat; details: for Wheat plant response rating: Postemergence; for Plant response rating, Wheat: Preemergence
Summary of the method: as §2

[6] = test system: sedge, umbrella (small-flower umbrella sedge, Cyperus difformis); test: Test C flooded paddy test: sedge, umbrella; details: scale 0 to 100 (0 no effect, 100 complete control)
Summary of the method: as §1

[7] = test system: barnyardgrass (Echinochloa crus-galli); test: Test C flooded paddy test: barnyardgrass; details: scale 0 to 100 (0 no effect, 100 complete control)
Summary of the method: as §1

[8] = test system: foxtail, giant (giant foxtail, Setaria faberii); test: Test A pre-/postemergence: foxtail, giant; details: for Foxtail, Giant plant response rating: Postemergence; for Plant response rating, Foxtail, Giant: Preemergence
Summary of the method: as §2

[9] = test system: barnyardgrass (Echinochloa crus-galli); test: Test A pre-/postemergence: barnyardgrass; details: for Barnyardgrass plant response rating: Postemergence; for Plant response rating, Barnyardgrass: Preemergence
Summary of the method: as §2

[10] = test system: morningglory (Ipomoea spp.); test: Test A pre-/postemergence: morningglory; details: for Morningglory plant response rating: Postemergence; for Plant response rating, Morningglory: Preemergence
Summary of the method: as §2

[11] = Flood (flooded paddy test), 62 g ai/ha, visual rating after 13 to 15 days
[12] = Flood (flooded paddy test), 125 g ai/ha, visual rating after 13 to 15 days
[13] = Flood (flooded paddy test), 250 g ai/ha, visual rating after 13 to 15 days
[14] = 125 g ai/ha, 0 to 100 scale, 0 is no effect, 100 is complete control
[15] = 500 g ai/ha, visual rating on 0 to 100 scale (0 no effect, 100 complete control), approximately ten days
[16] = 125 g ai/ha, 0 to 100 scale (0 no effect, 100 complete control)
[17] = 500 g ai/ha, 0 to 100 scale, 0 is no effect, 100 is complete control

Question: Which results are given for `COc1nn(-c2ccc(C(F)(F)F)cc2)nc1Cn1cnc(C(F)(F)F)n1` [Compound 18]?
Answer: Plant response rating, Rice (rice (Oryza sativa); [11]): 0; Plant response rating, Rice (rice (Oryza sativa); [12]): 0; Plant response rating, Rice (rice (Oryza sativa); [13]): 0; Plant response rating, Rice (rice (Oryza sativa); Flood, 31 g ai/ha): 0; Velvetleaf plant response rating [1, 14]: 70; Velvetleaf plant response rating [1, 15]: 80; Plant response rating, Velvetleaf [1, 16]: 20; Plant response rating, Velvetleaf [1, 17]: 30; Pigweed plant response rating [2, 14]: 100; Pigweed plant response rating [2, 15]: 100; Plant response rating, Pigweed [2, 16]: 80; Plant response rating, Pigweed [2, 17]: 100; Corn plant response rating (corn (Zea mays); [14]): 20; Corn plant response rating (corn (Zea mays); [15]): 30; Plant response rating, Corn (corn (Zea mays); [16]): 0; Plant response rating, Corn (corn (Zea mays); [17]): 0; Crabgrass, Large plant response rating [3, 14]: 60; Crabgrass, Large plant response rating [3, 15]: 80; Plant response rating, Crabgrass, Large [3, 16]: 90; Plant response rating, Crabgrass, Large [3, 17]: 90; Plant response rating, Ducksalad [4, 11]: 0; Plant response rating, Ducksalad [4, 12]: 0; Plant response rating, Ducksalad [4, 13]: 0; Plant response rating, Ducksalad ([4]; Flood, 31 g ai/ha): 0; Wheat plant response rating [5, 14]: 20; Wheat plant response rating [5, 15]: 30; Plant response rating, Wheat [5, 16]: 0; Plant response rating, Wheat [5, 17]: 0; Plant response rating, Sedge, Umbrella [6, 11]: 0; Plant response rating, Sedge, Umbrella [6, 12]: 40; Plant response rating, Sedge, Umbrella [6, 13]: 65; Plant response rating, Sedge, Umbrella ([6]; Flood, 31 g ai/ha): 0; Plant response rating, Barnyardgrass [7, 11]: 0; Plant response rating, Barnyardgrass [7, 12]: 0; Plant response rating, Barnyardgrass [7, 13]: 0; Plant response rating, Barnyardgrass ([7]; Flood, 31 g ai/ha): 0; Foxtail, Giant plant response rating [8, 14]: 30; Foxtail, Giant plant response rating [8, 15]: 70; Plant response rating, Foxtail, Giant [8, 16]: 80; Plant response rating, Foxtail, Giant [8, 17]: 90; Barnyardgrass plant response rating [9, 14]: 50; Barnyardgrass plant response rating [9, 15]: 60; Plant response rating, Barnyardgrass [9, 16]: 20; Plant response rating, Barnyardgrass [9, 17]: 30; Morningglory plant response rating [10, 14]: 80; Morningglory plant response rating [10, 15]: 90; Plant response rating, Morningglory [10, 16]: 10; Plant response rating, Morningglory [10, 17]: 50

Question: With `Cc1nn(-c2ccc(F)cc2)nc1Cn1c(Cl)nc(C(F)(F)F)c1Cl` [Compound 20] as the molecule, how does the “Plant response rating, Rice” value (rice (Oryza sativa); [11]) read?
Answer: Its value is 0.

Question: And the “Plant response rating, Rice” value (rice (Oryza sativa); [12])?
Answer: The value was 0.

Question: And the “Plant response rating, Rice” value (rice (Oryza sativa); [13])?
Answer: The value was 0.

Question: What about the “Plant response rating, Rice” value (rice (Oryza sativa); Flood, 31 g ai/ha) of the same molecule?
Answer: The value was 0.

Question: And the “Velvetleaf plant response rating” value [1, 14]?
Answer: Its value is 0.

Question: And the “Velvetleaf plant response rating” value [1, 15]?
Answer: Its value is 20.

Question: And the “Plant response rating, Velvetleaf” value [1, 16]?
Answer: The value was 0.

Question: What about the “Plant response rating, Velvetleaf” value [1, 17] of the same molecule?
Answer: Its value is 0.

Question: What about the “Pigweed plant response rating” value [2, 14] of the same molecule?
Answer: Its value is 0.

Question: And the “Pigweed plant response rating” value [2, 15]?
Answer: Its value is 30.

Question: And the “Plant response rating, Pigweed” value [2, 16]?
Answer: Its value is 0.

Question: What about the “Plant response rating, Pigweed” value [2, 17] of the same molecule?
Answer: The value was 0.

Question: And the “Corn plant response rating” value (corn (Zea mays); [14])?
Answer: The value was 0.

Question: And the “Corn plant response rating” value (corn (Zea mays); [15])?
Answer: Its value is 10.

Question: And the “Plant response rating, Corn” value (corn (Zea mays); [16])?
Answer: Its value is 0.

Question: What about the “Plant response rating, Corn” value (corn (Zea mays); [17]) of the same molecule?
Answer: The value was 0.

Question: And the “Crabgrass, Large plant response rating” value [3, 14]?
Answer: The value was 0.

Question: And the “Crabgrass, Large plant response rating” value [3, 15]?
Answer: The value was 10.

Question: And the “Plant response rating, Crabgrass, Large” value [3, 16]?
Answer: Its value is 0.

Question: And the “Plant response rating, Crabgrass, Large” value [3, 17]?
Answer: The value was 0.

Question: And the “Plant response rating, Ducksalad” value [4, 11]?
Answer: The value was 0.

Question: And the “Plant response rating, Ducksalad” value [4, 12]?
Answer: Its value is 0.

Question: And the “Plant response rating, Ducksalad” value [4, 13]?
Answer: Its value is 0.

Question: And the “Plant response rating, Ducksalad” value ([4]; Flood, 31 g ai/ha)?
Answer: Its value is 0.

Question: And the “Wheat plant response rating” value [5, 14]?
Answer: Its value is 0.

Question: And the “Wheat plant response rating” value [5, 15]?
Answer: The value was 0.

Question: What about the “Plant response rating, Wheat” value [5, 16] of the same molecule?
Answer: The value was 0.

Question: What about the “Plant response rating, Wheat” value [5, 17] of the same molecule?
Answer: Its value is 0.

Question: And the “Plant response rating, Sedge, Umbrella” value [6, 11]?
Answer: Its value is 0.

Question: And the “Plant response rating, Sedge, Umbrella” value [6, 12]?
Answer: Its value is 0.

Question: What about the “Plant response rating, Sedge, Umbrella” value [6, 13] of the same molecule?
Answer: The value was 0.

Question: And the “Plant response rating, Sedge, Umbrella” value ([6]; Flood, 31 g ai/ha)?
Answer: Its value is 0.

Question: What about the “Plant response rating, Barnyardgrass” value [7, 11] of the same molecule?
Answer: Its value is 0.

Question: What about the “Plant response rating, Barnyardgrass” value [7, 12] of the same molecule?
Answer: Its value is 0.

Question: What about the “Plant response rating, Barnyardgrass” value [7, 13] of the same molecule?
Answer: Its value is 0.

Question: What about the “Plant response rating, Barnyardgrass” value ([7]; Flood, 31 g ai/ha) of the same molecule?
Answer: The value was 0.

Question: And the “Foxtail, Giant plant response rating” value [8, 14]?
Answer: Its value is 0.

Question: What about the “Foxtail, Giant plant response rating” value [8, 15] of the same molecule?
Answer: Its value is 10.

Question: And the “Plant response rating, Foxtail, Giant” value [8, 16]?
Answer: The value was 0.

Question: And the “Plant response rating, Foxtail, Giant” value [8, 17]?
Answer: The value was 0.

Question: What about the “Barnyardgrass plant response rating” value [9, 14] of the same molecule?
Answer: Its value is 0.

Question: What about the “Barnyardgrass plant response rating” value [9, 15] of the same molecule?
Answer: Its value is 0.

Question: And the “Plant response rating, Barnyardgrass” value [9, 16]?
Answer: Its value is 0.

Question: What about the “Plant response rating, Barnyardgrass” value [9, 17] of the same molecule?
Answer: The value was 0.

Question: What about the “Morningglory plant response rating” value [10, 14] of the same molecule?
Answer: Its value is 0.

Question: What about the “Morningglory plant response rating” value [10, 15] of the same molecule?
Answer: The value was 10.

Question: What about the “Plant response rating, Morningglory” value [10, 16] of the same molecule?
Answer: Its value is 0.

Question: What about the “Plant response rating, Morningglory” value [10, 17] of the same molecule?
Answer: Its value is 0.
